Results from patent US20040053962A1, “Methods for inhibiting proliferation and inducing apoptosis in cancer cells” (priority 2003, published 2004).

Assays:
Assay type in all cases: cell-based
MiaPaCa-2 cells = assay: TUNEL assay (flow cytometry), MiaPaCa-2; details: control 1.5%
Protocol: TUNEL assay. Apoptosis was measured by flow cytometry using a terminal deoxynucleotidyl transferase-mediated deoxyuridine triphosphate nick-end labeling (“TUNEL”) assay. Cells were treated with LY293111 for the appropriate period of time, then digested with trypsin-EDTA, washed with ice-cold PBS twice, and fixed in 10% paraformaldehyde on ice for 20 minutes. Cells were then washed with PBS, permeabilized with 70% ethanol for at least 4 hours, washed again with PBS and incubated with 2.5 units of terminal deoxynucleotidyl transferase (TdT enzyme) and 100 pmol Br-dUTP in DNA labeling solution for one hour at 37° C. Cells were then rinsed twice, resuspended in 0.1 ml fluorescein labeled anti-BrdU antibody solution in the dark for 30 minutes. Then 0.5 ml propidium iodide/RNase A solution was added, and the cells analyzed by flow cytometry at 488 nm excitation.

[1] = test system: MiaPaCa-2 pancreatic cancer cell line; assay: [3H]-thymidine incorporation (DNA synthesis), MiaPaCa-2
Protocol: (§1) Cell culture. The following pancreatic cancer cell lines were used: MiaPaCa-2 and PANC-1 (poorly-differentiated); Capan-1 and Capan-2 (well-differentiated); and HPAF and AsPC-1 (pleomorphic). These were purchased from American Type Culture Collection (Rockville, Md.). PANC-1 and MiaPaCa-2 were grown in DMEM media; HPAF and AsPC-1 were grown in MEM media; and Capan-1 and Capan-2 were grown in-McCoy's media. Media were supplemented with 10% FBS, and the cells were grown as monolayers in a humidified atmosphere of […] and 5% CO2 at 37° C. The cells were regularly seeded into 75 cm^2 flask with media changed every other day. For experiments, cells were grown to 80% confluence, digested with trypsin-EDTA, and plated either in 12 or 24-well plates at a concentration of 50,000/ml, as appropriate.
DNA synthesis by [^3H]-Thymidine incorporation. Cells were plated in 12 or 24-well plates. After reaching 70% confluence, they were incubated in serum-free media for 24 hours, which was then replaced with fresh serum-free media with or without the appropriate concentration of leukotriene B4 receptor antagonist LY293111 (62.5-1000 nM), LTB4 (100-400 nM), or both. After the appropriate period of culture, cellular DNA synthesis was assayed by adding 0.5 μCi/well of [^3H]-methyl-thymidine and incubating for another 2 hours. Then, the cells were washed twice with PBS, fixed with 10% trichloroacetic acid (“TCA”) for 30 minutes, and solubilized by adding 0.4 M NaOH to each well. Radioactivity, indicating incorporation of ^3H-thymidine into DNA, was measured by adding a scintillation cocktail and counting on a scintillation counter (LKB RackBeta, Wallac, Turku, Finland)

[2] = test system: MiaPaCa-2 pancreatic cancer cells; assay: Cell proliferation assay (cell number, Coulter counter); details: 500 nM for 24, 48, and 72 hours (FIG. 2)
Protocol: as §1
Cell proliferation assay. Pancreatic cancer cells were seeded into 24-well microplates and incubated at 37° C. […] At the end of each time period, the cells were trypsinized to produce a single cell suspension, and the cell number in each well was determined using a Zi-Coulter Counter (Luton, Bedfordsire, United Kingdom).

[3] = test system: MiaPaCa-2 pancreatic cancer cells; assay: Morphological changes by phase-contrast microscopy, MiaPaCa-2; details: MiaPaCa-2, 250 nM, as early as 4 hours after treatment; interpreted as reflecting apoptosis
Protocol: Morphological changes using light microscope. Pancreatic cancer cells grown in 75 cm^2 flasks were treated with different concentrations of LY293111 for different periods of time. They were then viewed by phase-contrast microscopy, and photographs were taken.

[4] = test system: pancreatic cancer cell lines; assay: Proliferation of pancreatic cancer cell lines (summary statement)
Protocol: as §1
DNA synthesis by [^3H]-Thymidine incorporation. Cells were plated in 12 or 24-well plates. After reaching 70% confluence, they were incubated in serum-free media for 24 hours, which was then replaced with fresh serum-free media with or without the appropriate concentration of leukotriene B4 receptor antagonist LY293111 (62.5-1000 nM), LTB4 (100-400 nM), or both. […] Radioactivity, indicating incorporation of ^3H-thymidine into DNA, was measured by adding a scintillation cocktail and counting on a scintillation counter (LKB RackBeta, Wallac, Turku, Finland)

Question: What does the source list for `CCCc1c(OCCCOc2cc(O)c(-c3ccc(F)cc3)cc2CC)cccc1Oc1ccccc1C(=O)O` [LY293111, 2-(2-propyl-3-(3-(2-ethyl-4-(4-fluorophenyl)-5-hydroxyphenoxy)propoxy)-phenoxy)benzoic acid]?
Answer: apoptosis (TUNEL) (MiaPaCa-2 cells; MiaPaCa-2, 250 nM LY293111 for 24 hours): 12.6%; apoptosis (TUNEL) (MiaPaCa-2 cells; MiaPaCa-2, 500 nM LY293111 for 24 hours): 18.6%; decrease of proliferation ([1]; MiaPaCa-2 (FIG. 6A), LY293111 250 nM, 24 hours): 50%; proliferation with combination of LTB4 and LY293111 ([1]; MiaPaCa-2, 250 nM LY293111 + 100 nM LTB4, 24 hours): restored to almost the control level; effect on thymidine incorporation ([1]; MiaPaCa-2, concentration-dependent (FIG. 1A, P<0.0001) and time-dependent (FIG. 1B, P<0.0001)): inhibition of thymidine incorporation; effect on cell number [2]: inhibition; morphological changes (phase-contrast microscopy) [3]: marked morphological changes; inhibition at 0.25 µM ([4]; LY293111 250 nM): ≥ 50%; inhibition at 1 µM ([4]; LY293111 1000 nM): > 95%
